From patent publication US20170258871A1, “COMBINED USE OF A TRKA INHIBITOR AND AN EPHA2 INHIBITOR FOR USING IN THE TREATMENT OF SOLID CANCERS, AND METHOD FOR THE PROGNOSIS OF SURVIVAL OF A PATIENT WHO HAS A SOLID CANCER” (UNIVERSITE DES SCIENCES ET TECHNOLOGIES DE LILLE, priority 2014, published 2017)

Legend:
Type in all cases: cell-based
MDA-MB-231 cells = assay: In vitro invasion test (Boyden chamber), MDA-MB-231
Method: (§1) (0.5 nM) for a period of 20 hours. The untreated cells represent the control and determine a base invasion of 100%.
(§2) FIG. 3: A study of the involvement of EphA2 on the pro-invasive effects of proNGF. The invasion test is carried out on cells MDA-MB-231 (A), DU145 (B) and PC3 (C) transfected with a siRNA against EphA2 (siEphA2), TrkA (siTrkA) or a random siRNA (siCTRL). The transfected siCTRL cells are treated to provide a control and determine a base invasion of 100% (white column). […] The efficacy of the siRNA is measured by the western blot method through the use of specific antibodies against TrkA, EphA2, and actin (load control).
FIG. 10: Study on the effect of lestaurtinib (TrkA inhibitor) and EphrinA1-Fc (EphA2 inhibitor) and combination of treatment on invasion of breast cancer cells. […] Non-stimulated cells (“non stim”) of proNGF served as the control and determined a base invasion of 100% (white bar).
(§3) The Boyden Chambers (Transwell®; BD Biosciences; France) were recovered from a biological matrix (type 1 collagen from rats diluted to 400 μg·mL-1 in EMEM-0.1% FCS medium; Millipore). […] The number of cells was estimated after staining with Hoechst 33 258 (1 mM; 30 min; 20° C.) by counting the nuclei thereof using fluorescence microscopy on a total of 5 five randomly chosen fields (lens 10×; λ-excitation: 345 nm; λ-emission: 478 nm; Eclipse Ti) using the ImageJ software. […]

DU145 cells = assay: In vitro invasion test (Boyden chamber), DU145
Method: as §1, §2
as §3, with “Millipore). The cells were then seeded with 100,000 cells/well on PET membranes (polyethylene terephtalate; dia.: 10.5 mm; porosity: 8 μm) of Boyden Chambers and held in an EMEM-0.1% FCS medium. […] (0.5 nM) in the lower part.” for “Millipore).”

Akt = assay: Western blot of Akt phosphorylation in MDA-MB-231 cells
Method: (§4) FIG. 8: A study of the role of TrkA and EphA2 in the activation of proteins Akt and Src. Cells MDA-MB-231 were respectively treated with a TrkA inhibitor (K252a), an anti-EphA2 siRNA (siEphA2), an inhibitor of PI3-K (LY294002) and an inhibitor of Src (SKI-1).
(§5) A and D. Cells MDA-MB-231 HA-TrkA were treated with proNGF N.C. […] The phosphorylation of Akt and Src was determined by using phospho-specific antibodies. The equal charge was verified using Akt and Src antibodies.
(§6) C and F. The phosphorylation of Akt and Src was determined in the total lysates coming from cells MDA-MB-231 transfected with siEphA2 and treated for 30 minutes with proNGF N.C. (C) or NGF (F).
(§7) After treatment, the cells were lysed (lysis buffer: 40 mM HEPES pH 7.5; 1 mM EDTA pH 8.0; 120 mM NaCl; 10 mM NaPPi; 50 mM NaF; 1.5 mM Na3VO4; 1% Triton X 100; 0.1% SDS; 1 mM PMSF; 10% glycerol and 1/100 th of protease inhibitor cocktail (Sigma) (20 min; 4° C.)). The lysates were recovered and clarified by centrifugation (12,000 g; 10 min; 4° C.). The supernatant was then stored at −80° C. until use. The protein extracts were diluted to 2 μg·μL−1 in a Laemmli 1× buffer (7 min; 100° C.) then deposited and separated on SDS-PAGE (concentration gel 3.6% acrylamide and separation gel 7.5% to 10% acrylamide (thickness 1 mm); 180 V; 10 min then 200 V constant; until output of the migration front). The proteins separated by SDS-PAGE were transferred according to the semi-dry transfer method (buffer: 48 mM Tris base, 39 mM glycine, 1.64 mM SDS, 20% methanol (v/v); 14 V; 15 min per gel) or liquid (buffer: 25 mM Tris base and 192 mM glycine; 15% methanol (v/v); 100 V; 30 min) on nitrocellulose membranes (0.45 μm; Whatman; Germany) or PVDF (0.45 μm; Immobilon P; Millipore; France). The PVDF membrane was “activated” beforehand (methanol; 10 min; 20° C.). The membranes were then saturated (TBS-T; 5% BSA; 1 h; 20° C.) then incubated (16 h; 4° C.) with the chosen primary antibody. […] The membranes were placed in an image analyser (LAS 4000; Fuji) connected to a computer which allowed image generation (software Image Reader LAS 4000).
(§8) The antibody against EphA2 was sc-924 (Santa Cruz), the antibody against sortilin was BD Bioscience 612101, the antibody against TrkA was sc 14024 (Santa Cruz), the antibody against HA was MMS-101R (Covance), the antibody against Akt was Cell Signaling 4691, the antibody against phospho-Akt (Ser 473) was Cell Signaling 9271, the antibody against Src was Cell Signaling 2109 (WB), the antibody against PhosphoSrc (Tyr416) was Cell Signaling 2105 and the antibody against actin was Sigma A2066.
(§9) Proteins Akt and Src were both involved in the pro-invasive effect of proNGF. In order to identify the role of TrkA and EphA2 in the activation of proteins Akt and Src, cells MDA-MB-231 were treated respectively with a TrkA inhibitor (K252a), an anti-EphA2 siRNA (siEphA2) the sequence of which is presented in table 1, a PI3-K inhibitor (LY294002) (the activation of Akt in effect underlies that of PI3-K) and an inhibitor of Src (SKI-1).

Src = assay: Western blot of Src phosphorylation in MDA-MB-231 cells
Method: as §4, §5, §6, §7, §8, §9

[1] = NGF 16 nM or proNGF N.C. 0.5 nM, untreated cells = 100%
[2] = siRNA transfection vs siCTRL, proNGF
[3] = NGF 30 min, 10 nM K252a or siEphA2

Substance	cell invasion under growth factor (MDA-MB-231 cells; [1])	cell invasion under growth factor (DU145 cells; [1])	activation (phosphorylation) of Akt by the ligand (Akt; MDA-MB-231 HA-TrkA, 30 min)	activation (phosphorylation) of Src by the ligand (Src; MDA-MB-231 HA-TrkA, 30 min)	invasion induced by proNGF in siRNA-transfected cells (MDA-MB-231 cells; [2])	invasion induced by proNGF in siRNA-transfected cells (DU145 cells; [2])	effect on Akt phosphorylation induced by NGF (Akt; [3])	effect on Src phosphorylation induced by NGF (Src; [3])	effect on Src activation induced by proNGF (Src; proNGF N.C. 30 min, 10 nM K252a, 15 μM LY294002, 50 nM SKI-1 or siEphA2)
NGF: Nerve Growth Factor; recombinant human β NGF supplied by Scil Proteins	increased cell invasion	increased cell invasion	increased	increased					
siEphA2: siRNA against EphA2, GCAAGGAAGUGGUACUGCUGGACUU (SEQ ID NO: 1) (listed as RNA, chemistry not given here)					abolished the invasion induced by proNGF	abolished the invasion induced by proNGF	reduces only the base activation of phospho-Akt and phospho-Src but not the phosphorylation induced by the NGF	reduces only the base activation of phospho-Akt and phospho-Src but not the phosphorylation induced by the NGF	reduced the phosphorylation of Src
